Reference: paper PMC8343220, “The selectivity of α‐adrenoceptor agonists for the human α1A, α1B, and α1D‐adrenoceptors” (Pharmacology Research & Perspectives, 2021)

How the values were obtained:
[1] = system: parental CHO cell line without any transfected receptors; assay: ERK1/2‐phosphorylation, parent CHO cells without transfected receptors; format: cell-based, Chinese hamster; details: Cricetulus griseus, CHO; read-out: ERK1/2-phosphorylation % PDBu at 100μM
[2] = target: T1, human α1B‐adrenoceptor (Homo sapiens, UniProt P35368); assay: ^3H‐cAMP accumulation in the presence of 10 μM forskolin, CHO‐α1B cells; format: cell-based; details: CHO‐α1B cells
T1 construct: expressed in transfected cells; host or cells: CHO-K1
T1 sequence (P35368 1-520): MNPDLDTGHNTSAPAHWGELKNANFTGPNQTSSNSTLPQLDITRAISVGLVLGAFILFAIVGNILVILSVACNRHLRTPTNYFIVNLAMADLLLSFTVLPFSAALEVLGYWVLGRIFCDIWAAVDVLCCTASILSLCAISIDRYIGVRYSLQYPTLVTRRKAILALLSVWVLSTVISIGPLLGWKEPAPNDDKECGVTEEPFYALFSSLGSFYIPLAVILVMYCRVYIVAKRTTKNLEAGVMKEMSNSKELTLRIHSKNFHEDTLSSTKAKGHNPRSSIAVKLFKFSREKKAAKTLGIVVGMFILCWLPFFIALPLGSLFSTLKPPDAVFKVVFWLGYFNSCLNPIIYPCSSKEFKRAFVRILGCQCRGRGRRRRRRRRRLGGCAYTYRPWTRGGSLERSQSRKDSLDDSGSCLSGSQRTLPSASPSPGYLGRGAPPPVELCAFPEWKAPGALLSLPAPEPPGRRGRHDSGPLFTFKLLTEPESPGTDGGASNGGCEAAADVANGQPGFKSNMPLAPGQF

[3] = target: T1, human α1B‐adrenoceptor; assay: ^3H‐cAMP accumulation, CHO‐α1B cells; format: cell-based; details: CHO‐α1B cells
[4] = target: T2, human α1A‐adrenoceptor (Homo sapiens, UniProt P35348); assay: ^3H‐prazosin whole‐cell radioligand binding, CHO‐α1A cells
T2 construct: expressed in transfected cells; host or cells: CHO-K1
T2 sequence (P35348 1-466): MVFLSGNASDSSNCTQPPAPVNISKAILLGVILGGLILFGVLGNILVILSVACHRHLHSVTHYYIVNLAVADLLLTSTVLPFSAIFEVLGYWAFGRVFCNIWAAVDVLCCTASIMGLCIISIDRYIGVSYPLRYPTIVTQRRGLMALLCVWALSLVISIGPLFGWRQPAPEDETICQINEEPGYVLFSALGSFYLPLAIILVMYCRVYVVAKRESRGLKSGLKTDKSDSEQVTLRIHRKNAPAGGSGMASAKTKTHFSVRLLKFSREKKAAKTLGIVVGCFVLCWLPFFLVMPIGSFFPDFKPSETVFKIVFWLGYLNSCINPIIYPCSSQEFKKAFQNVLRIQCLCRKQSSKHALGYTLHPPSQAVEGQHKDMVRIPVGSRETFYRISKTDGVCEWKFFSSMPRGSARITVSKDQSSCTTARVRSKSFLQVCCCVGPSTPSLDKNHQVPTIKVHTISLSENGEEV

[5] = target: T3, human α1D‐adrenoceptor (full length) (Homo sapiens, UniProt P25100); assay: ^3H‐prazosin whole‐cell radioligand binding, CHO‐α1D cells; details: for Kd: CHO‐α1D cells
T3 construct: human α1D‐adrenoceptor (full length) were used; expressed in transfected cells; host or cells: CHO-K1
T3 sequence (P25100 1-572): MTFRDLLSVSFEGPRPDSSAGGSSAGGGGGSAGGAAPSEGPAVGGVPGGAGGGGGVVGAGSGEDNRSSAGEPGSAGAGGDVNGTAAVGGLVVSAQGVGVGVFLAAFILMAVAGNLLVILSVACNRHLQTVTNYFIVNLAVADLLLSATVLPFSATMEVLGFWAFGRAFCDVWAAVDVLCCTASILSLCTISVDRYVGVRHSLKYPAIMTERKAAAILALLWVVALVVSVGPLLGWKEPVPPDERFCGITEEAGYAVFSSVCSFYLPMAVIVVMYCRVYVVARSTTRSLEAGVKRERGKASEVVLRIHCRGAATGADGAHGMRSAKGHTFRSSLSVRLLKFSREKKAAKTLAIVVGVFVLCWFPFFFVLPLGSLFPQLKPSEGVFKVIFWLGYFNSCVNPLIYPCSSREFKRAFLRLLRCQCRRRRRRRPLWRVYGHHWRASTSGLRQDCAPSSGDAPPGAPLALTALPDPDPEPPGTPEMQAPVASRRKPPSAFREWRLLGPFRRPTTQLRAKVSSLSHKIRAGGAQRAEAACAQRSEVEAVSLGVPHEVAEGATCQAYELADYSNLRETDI

[6] = target: T2, human α1A‐adrenoceptor; assay: ^3H‐cAMP accumulation in the presence of 10 μM forskolin, CHO‐α1A cells; format: cell-based; details: CHO‐α1A cells
[7] = system: parental CHO cell line without any transfected receptors; assay: Forskolin‐stimulated cAMP accumulation, parent CHO cells without transfected receptors; format: cell-based, Chinese hamster; details: CHO cells without transfected receptors; in presence of forskolin
[8] = target: T2, human α1A‐adrenoceptor; assay: Intracellular free calcium mobilization, CHO‐α1A cells; format: cell-based
[9] = target: T1, human α1B‐adrenoceptor; assay: Intracellular free calcium mobilization, CHO‐α1B cells; format: cell-based
[10] = target: T3, human α1D‐adrenoceptor (full length); assay: Intracellular free calcium mobilization, CHO‐α1D cells; format: cell-based
[11] = target: T2, human α1A‐adrenoceptor; assay: ERK1/2‐phosphorylation (Surefire Alphascreen), CHO‐α1A cells; format: cell-based
[12] = target: T2, human α1A‐adrenoceptor; assay: ^3H‐cAMP accumulation, CHO‐α1A cells; format: cell-based; details: CHO‐α1A cells
[13] = target: T1, human α1B‐adrenoceptor; assay: ERK1/2‐phosphorylation (Surefire Alphascreen), CHO‐α1B cells; format: cell-based
[14] = target: T3, human α1D‐adrenoceptor (full length); assay: ERK1/2‐phosphorylation (Surefire Alphascreen), CHO‐α1D cells; format: cell-based
[15] = target: T1, human α1B‐adrenoceptor; assay: ^3H‐prazosin whole‐cell radioligand binding, CHO‐α1B cells; details: CHO‐α1B cells
[16] = fold increase of the forskolin response
[17] = CHO‐α1D cells, log values given negative

For `Brc1c(NC2=NCCN2)ccc2nccnc12` [Brimonidine], which Emax at 100 µM [1] is on record?
The Emax at 100 µM was 2.3 ± 1.7%.

What about the “cAMP accumulation (in presence of forskolin) Fold increase” value [2, 16] of the same molecule?
The value was 1.58 ± 0.07 fold.

And the EC50 ([2]; in presence of forskolin, read-out: cAMP accumulation (in presence of forskolin) Log EC50 (converted))?
The EC50 was 105 nM.

And the “cAMP accumulation % forskolin” value ([3]; % forskolin maximum response)?
The value was 4.5 ± 1.6%.

What about the EC50 ([3]; read-out: cAMP accumulation Log EC50 (converted)) of the same molecule?
The EC50 was 129 nM.

And the “Affinity selectivity ratio α1A vs α1B” value [4]?
The value was 4.8 fold.

And the “Affinity selectivity ratio α1A vs α1D” value [4]?
The value was 1.2 fold.

What about the Kd ([4]; Log KD α1A, ^3H‐prazosin whole cell binding, CHO‐α1A cells, given as log KD (negative), mean ± SEM) of the same molecule?
Its Kd is 4370 nM.

What about the “Affinity selectivity ratio α1B vs α1D” value [5] of the same molecule?
Its value is 3.9 fold.

What about the Kd ([5]; 3H‐prazosin binding Log KD, whole‐cell binding (from Table 1), log values given negative) of the same molecule?
Its Kd is 5370 nM.

And the Kd ([5]; Log KD α1D, ^3H‐prazosin whole cell binding, given as log KD (negative), mean ± SEM, 'early plateau' = specific binding not fully inhibited)?
The Kd was 5370 nM.

And the EC50 ([6]; 10 μM forskolin, read-out: cAMP accumulation (in presence of forskolin) Log EC50 (converted))?
The EC50 was 1580 nM.

What about the “cAMP accumulation (in presence of forskolin) Fold increase” value [6, 16] of the same molecule?
Its value is 1.96 ± 0.05 fold.

And the “cAMP accumulation (in presence of forskolin) Log EC50” value [7]?
The value was “No response”.

And the “Intracellular calcium release % ionomycin” value [8]?
Its value is 47.8 ± 4.1%.

What about the “Log efficacy ratio KD /EC50” value [8] of the same molecule?
The value was 1.57.

What about the EC50 ([8]; CHO‐α1A cells, given as log EC50 (negative), read-out: Intracellular calcium release Log EC50 (converted)) of the same molecule?
Its EC50 is 117 nM.

And the “Intracellular calcium release % ionomycin” value [9]?
The value was 35.8 ± 2.4%.

And the “Log efficacy ratio KD /EC50” value [9]?
The value was 2.33.

And the EC50 ([9]; CHO‐α1B cells, given as log EC50 (negative numbers), read-out: Intracellular calcium release Log EC50 (converted))?
The EC50 was 97.7 nM.

And the “Intracellular calcium release % ionomycin” value [10]?
The value was “No response”.

What about the “Intracellular calcium release Log EC50” value [10, 17] of the same molecule?
The value was “No response”.

And the “ERK1/2‐phosphorylation % PDBu” value [11]?
The value was 86.4 ± 3.6%.

What about the EC50 ([11]; CHO‐α1A cells, 2–4 min, ^a bi‐phasic: initial stimulatory part, ^b also active in parent CHO cells, read-out: ERK1/2‐phosphorylation Log EC50 (converted)) of the same molecule?
The EC50 was 363 nM.

What about the EC50 ([12]; 5 h, read-out: cAMP accumulation Log EC50 (converted)) of the same molecule?
The EC50 was 5750 nM.

What about the “cAMP accumulation % forskolin” value ([12]; % of 10 µM forskolin response) of the same molecule?
The value was 17.8 ± 1.7%.

What about the “ERK1/2‐phosphorylation % PDBu” value [13] of the same molecule?
The value was 41.2 ± 6.2%.

And the EC50 ([13]; CHO‐α1B cells, for bi‐phasic responses the initial stimulatory part, read-out: ERK1/2‐phosphorylation Log EC50 (converted))?
Its EC50 is 724 nM.

And the “ERK1/2‐phosphorylation % PDBu” value [14]?
Its value is “No response”.

What about the “ERK1/2‐phosphorylation Log EC50” value [14, 17] of the same molecule?
The value was “No response”.

And the Kd ([15]; Log KD α1B, ^3H‐prazosin whole cell binding, given as log KD (negative), mean ± SEM)?
Its Kd is 20900 nM.

And the Kd ([15]; Log KD, ^3H‐prazosin binding, whole‐cell binding (from Table 1), given as log KD (negative numbers))?
The Kd was 20900 nM.
